# PMC11003491 (Journal of Enzyme Inhibition and Medicinal Chemistry, 2023)
# Assays:
# [1] = tested on: A549 small lung cancer cell line; experiment: MTT cell viability assay, A549; format: cell-based; conditions: Homo sapiens, A549, 48 h, read-out: A549 IC50, MTT, 48 h, mean of six values
# HER-2 = HER-2 (Homo sapiens, UniProt P04626); experiment: HER-2 Kinase Assay Kit; format: biochemical
# EGFR-WT = EGFR-WT (Homo sapiens, UniProt P00533); experiment: biochemical; conditions: EGFR WT IC50, five concentrations
# MCF7 breast cells = experiment: Apoptosis by Annexin-V-FITC/PI flow cytometry; format: cell-based, human; conditions: MCF7, compound at IC50, 24 h
# breast MCF7 cells = experiment: Cell cycle analysis by flow cytometry; format: cell-based, human; conditions: MCF7, compound at IC50 concentration, 24 h
# MCF-7 = conditions: read-out: cytotoxicity against MCF-7 IC50; cited from earlier work
# Sequence of EGFR-WT (P00533 25-1210): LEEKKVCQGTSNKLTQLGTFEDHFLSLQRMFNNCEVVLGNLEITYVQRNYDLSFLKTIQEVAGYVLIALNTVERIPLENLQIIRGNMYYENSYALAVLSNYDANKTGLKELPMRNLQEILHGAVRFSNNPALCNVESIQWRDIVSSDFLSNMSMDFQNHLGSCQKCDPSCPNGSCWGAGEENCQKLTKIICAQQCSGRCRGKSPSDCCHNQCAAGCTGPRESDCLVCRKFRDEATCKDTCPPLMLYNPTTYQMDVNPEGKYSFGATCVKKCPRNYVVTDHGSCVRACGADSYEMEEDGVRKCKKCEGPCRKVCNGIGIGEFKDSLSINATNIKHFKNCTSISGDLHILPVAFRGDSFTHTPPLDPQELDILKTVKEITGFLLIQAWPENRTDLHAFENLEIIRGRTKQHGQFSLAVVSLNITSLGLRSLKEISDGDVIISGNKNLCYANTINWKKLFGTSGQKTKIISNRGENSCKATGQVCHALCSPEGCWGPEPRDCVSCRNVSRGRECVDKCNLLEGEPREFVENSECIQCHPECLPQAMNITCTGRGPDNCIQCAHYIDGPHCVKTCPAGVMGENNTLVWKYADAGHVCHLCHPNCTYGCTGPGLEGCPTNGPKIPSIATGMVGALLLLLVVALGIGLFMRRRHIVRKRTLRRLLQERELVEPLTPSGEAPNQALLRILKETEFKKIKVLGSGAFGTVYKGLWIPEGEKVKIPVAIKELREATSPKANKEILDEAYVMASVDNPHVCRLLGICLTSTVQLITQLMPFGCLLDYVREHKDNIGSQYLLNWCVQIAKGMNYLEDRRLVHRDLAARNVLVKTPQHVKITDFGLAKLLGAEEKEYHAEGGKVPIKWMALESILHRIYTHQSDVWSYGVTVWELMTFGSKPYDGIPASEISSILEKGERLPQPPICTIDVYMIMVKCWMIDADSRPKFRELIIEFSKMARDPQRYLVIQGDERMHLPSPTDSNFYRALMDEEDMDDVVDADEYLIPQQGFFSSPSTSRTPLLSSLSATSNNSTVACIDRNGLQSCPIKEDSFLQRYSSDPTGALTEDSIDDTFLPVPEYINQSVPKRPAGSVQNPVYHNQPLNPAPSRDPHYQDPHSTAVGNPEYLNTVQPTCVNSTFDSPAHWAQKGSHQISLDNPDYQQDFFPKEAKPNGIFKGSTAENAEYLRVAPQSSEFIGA
# Sequence of HER-2 (P04626 23-1255): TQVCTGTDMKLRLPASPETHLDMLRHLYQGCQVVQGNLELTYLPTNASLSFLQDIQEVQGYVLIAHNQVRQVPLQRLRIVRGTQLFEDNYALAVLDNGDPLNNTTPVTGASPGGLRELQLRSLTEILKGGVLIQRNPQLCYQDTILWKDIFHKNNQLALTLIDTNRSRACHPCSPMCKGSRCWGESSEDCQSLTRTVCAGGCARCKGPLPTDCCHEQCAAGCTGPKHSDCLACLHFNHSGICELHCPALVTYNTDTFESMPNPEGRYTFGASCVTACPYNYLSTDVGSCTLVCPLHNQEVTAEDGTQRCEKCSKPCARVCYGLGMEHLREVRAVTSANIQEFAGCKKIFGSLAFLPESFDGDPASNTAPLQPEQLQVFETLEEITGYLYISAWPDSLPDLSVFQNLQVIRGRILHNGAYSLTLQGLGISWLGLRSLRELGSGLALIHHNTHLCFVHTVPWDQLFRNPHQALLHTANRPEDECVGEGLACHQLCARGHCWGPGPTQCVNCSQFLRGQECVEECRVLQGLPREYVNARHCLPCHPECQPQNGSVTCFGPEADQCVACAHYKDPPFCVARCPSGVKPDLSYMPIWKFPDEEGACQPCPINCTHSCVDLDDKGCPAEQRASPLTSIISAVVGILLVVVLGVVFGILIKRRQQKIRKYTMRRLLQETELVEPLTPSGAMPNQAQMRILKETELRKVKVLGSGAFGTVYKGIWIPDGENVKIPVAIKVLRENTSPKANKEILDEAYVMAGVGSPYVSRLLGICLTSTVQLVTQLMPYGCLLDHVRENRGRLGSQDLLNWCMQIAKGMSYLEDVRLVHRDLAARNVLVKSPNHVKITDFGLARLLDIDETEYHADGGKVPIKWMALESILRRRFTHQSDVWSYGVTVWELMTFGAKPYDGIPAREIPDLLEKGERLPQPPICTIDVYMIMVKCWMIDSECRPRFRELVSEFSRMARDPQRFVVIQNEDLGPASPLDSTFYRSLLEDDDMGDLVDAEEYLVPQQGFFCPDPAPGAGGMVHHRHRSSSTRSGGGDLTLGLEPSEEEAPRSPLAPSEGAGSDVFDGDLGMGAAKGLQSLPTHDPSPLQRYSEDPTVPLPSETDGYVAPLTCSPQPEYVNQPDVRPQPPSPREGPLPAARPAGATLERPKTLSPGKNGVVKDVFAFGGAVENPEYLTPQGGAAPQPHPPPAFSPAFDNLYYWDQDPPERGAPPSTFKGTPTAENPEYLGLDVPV
IC50 [1],IC50 (HER-2),IC50 (EGFR-WT),Compound,Apoptosis Early (MCF7 breast cells),Apoptosis Late (MCF7 breast cells),Necrosis (MCF7 breast cells),%G0–G1 (breast MCF7 cells),%G2-M (breast MCF7 cells),IC50 (MCF-7)
1.64 to 14.3 µM,0.201 µM,0.19 µM,"CC(C)Cc1ccc(-c2nn(-c3ccc(S(C)(=O)=O)cc3)cc2/C=N/N=c2\[nH]c(-c3ccc([N+](=O)[O-])cc3)cs2)cc1 [Compound 18f, (E)-2-((E)-((3–(4-isobutylphenyl)-1–(4-(methylsulfonyl)phenyl)-1H-pyrazol-4-yl)methylene)hydrazono)-4–(4-nitrophenyl)-2,3-dihydrothiazole]",–,–,–,–,–,–
–,0.195 µM,0.388 µM,"COc1ccc(-c2nn(-c3ccc(S(C)(=O)=O)cc3)cc2C=N/N=c2\[nH]c(-c3ccc([N+](=O)[O-])cc3)cs2)cc1 [Compound 18d, (E and Z)-2-((E)-((3–(4-methoxyphenyl)-1–(4-(methylsulfonyl)phenyl)-1H-pyrazol-4-yl)methylene)hydrazono)-4–(4-nitrophenyl)-2,3-dihydrothiazole]",12.58%,27.45%,6.52%,62.43%,4.39%,–
–,0.144 µM,0.226 µM,"COc1ccc(-c2nn(-c3ccc(S(C)(=O)=O)cc3)cc2/C=N/N=c2\[nH]c(-c3ccc(Br)cc3)cs2)cc1 [Compound 18c, (E)-4–(4-bromophenyl)-2-((E)-((3–(4-methoxyphenyl)-1–(4-(methylsulfonyl)phenyl)-1H-pyrazol-4-yl)methylene)hydrazono)-2,3-dihydrothiazole]",–,–,–,–,–,–
–,–,–,C#Cc1cccc(Nc2ncnc3cc(OCCOC)c(OCCOC)cc23)c1 [erlotinib],–,–,–,–,–,0.02 µM
